In ChEMBL document CHEMBL1143727, “Terpenoids from the medicinal plant Maytenus ilicifolia” (J Nat Prod, 2007):
The source made the active and inactive calls. The rule behind the calls is not given here.

system: Saccharomyces cerevisiae; assay: Antimicrobial activity against DNA damage check point deffective Saccharomyces cerevisiae mutants; assay type: functional, organism-based

Question: `C=C(C)C1CCC(C)[C@@]23CC=C(C)[C@]2(C1)Oc1cc2c(c(C)c1O3)C(=O)C=C1[C@@]2(C)CC[C@@]2(C)C3C[C@@H](C)C(=O)C[C@]3(C)CC[C@]12C` (some centres undefined) was tested. Which Activity did it give?
Answer: Its Activity is “inactive”.

Question: For `COc1cc(C(=O)Oc2c(O)cc3c(c2C)C(O)CC2[C@@]3(C)CC[C@@]3(C)C4C[C@@H](C)C(=O)C[C@]4(C)CC[C@]23C)ccc1O` (some centres undefined), which Activity is on record?
Answer: Its Activity is “inactive”.

Question: Which Activity does the source give for `C=C(C)C1CCC(C)[C@@]23CC=C(C)[C@]2(C1)Oc1c(cc2c(c1C)C=CC1[C@@]2(C)CC[C@@]2(C)C4C[C@@H](C)C(=O)C[C@]4(C)CC[C@]12C)O3` (some centres undefined) here?
Answer: Its Activity is “inactive”.

Question: `COC(=O)[C@]1(C)CC[C@](C)(CC[C@]2(C)C(/C=C\c3ccc4c(c3C)O[C@]3(O)C(=O)C=C5C(=CC=C6[C@@]5(C)CC[C@@]5(C)C7C[C@@H](C)C(=O)C[C@]7(C)CC[C@]65C)[C@]3(C)O4)[C@@H](C)CC[C@@H]2C)CC1` (some centres undefined) was tested. Which Activity did it give?
Answer: The Activity was “inactive”.
